Changes are numbered by the printed parent chain. pIC50: −log10 of the molar value.
How the values were obtained:
[1] = target: T1, Prostaglandin G/H synthase 1 (Ovis aries, UniProt P05979)
T1 sequence (P05979 whole entry): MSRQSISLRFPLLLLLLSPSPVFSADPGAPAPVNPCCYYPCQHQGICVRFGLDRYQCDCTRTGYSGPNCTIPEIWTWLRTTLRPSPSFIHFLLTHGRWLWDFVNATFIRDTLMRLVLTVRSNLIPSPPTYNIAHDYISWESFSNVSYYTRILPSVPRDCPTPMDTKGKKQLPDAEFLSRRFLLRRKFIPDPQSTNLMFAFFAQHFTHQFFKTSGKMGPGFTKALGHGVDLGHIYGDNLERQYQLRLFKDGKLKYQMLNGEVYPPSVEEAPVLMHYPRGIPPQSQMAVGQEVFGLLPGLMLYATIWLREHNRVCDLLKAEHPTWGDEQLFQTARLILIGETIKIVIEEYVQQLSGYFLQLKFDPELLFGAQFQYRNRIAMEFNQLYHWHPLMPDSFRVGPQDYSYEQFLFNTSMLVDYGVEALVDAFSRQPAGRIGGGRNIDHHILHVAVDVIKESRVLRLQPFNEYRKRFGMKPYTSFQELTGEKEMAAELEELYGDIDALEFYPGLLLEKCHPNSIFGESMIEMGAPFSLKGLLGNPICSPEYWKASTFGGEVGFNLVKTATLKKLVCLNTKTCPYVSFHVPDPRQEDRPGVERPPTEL
Description: Inhibition of ovine COX1 by discontinuous radioactive TLC assay

[2] = target: T2, Aldo-keto reductase family 1 member C2 (Homo sapiens, UniProt P52895); assay: Inhibition of human recombinant AKR1C2-mediated NADP+-dependent oxidation of S-(+)-1,2,3,4-tetrahydro-1-naphthol
T2 sequence (P52895 whole entry): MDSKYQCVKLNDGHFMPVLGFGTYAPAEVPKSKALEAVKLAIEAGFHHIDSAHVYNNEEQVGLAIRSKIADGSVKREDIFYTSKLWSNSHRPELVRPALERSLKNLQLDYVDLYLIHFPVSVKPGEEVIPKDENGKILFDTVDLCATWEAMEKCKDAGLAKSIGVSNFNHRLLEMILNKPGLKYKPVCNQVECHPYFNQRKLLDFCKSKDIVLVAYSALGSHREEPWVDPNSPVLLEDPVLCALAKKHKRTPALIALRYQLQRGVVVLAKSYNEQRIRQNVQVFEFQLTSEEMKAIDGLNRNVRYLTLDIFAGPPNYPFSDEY

[3] = target: T3, Prostaglandin G/H synthase 2 (Mus musculus, UniProt Q05769)
T3 sequence (Q05769 whole entry): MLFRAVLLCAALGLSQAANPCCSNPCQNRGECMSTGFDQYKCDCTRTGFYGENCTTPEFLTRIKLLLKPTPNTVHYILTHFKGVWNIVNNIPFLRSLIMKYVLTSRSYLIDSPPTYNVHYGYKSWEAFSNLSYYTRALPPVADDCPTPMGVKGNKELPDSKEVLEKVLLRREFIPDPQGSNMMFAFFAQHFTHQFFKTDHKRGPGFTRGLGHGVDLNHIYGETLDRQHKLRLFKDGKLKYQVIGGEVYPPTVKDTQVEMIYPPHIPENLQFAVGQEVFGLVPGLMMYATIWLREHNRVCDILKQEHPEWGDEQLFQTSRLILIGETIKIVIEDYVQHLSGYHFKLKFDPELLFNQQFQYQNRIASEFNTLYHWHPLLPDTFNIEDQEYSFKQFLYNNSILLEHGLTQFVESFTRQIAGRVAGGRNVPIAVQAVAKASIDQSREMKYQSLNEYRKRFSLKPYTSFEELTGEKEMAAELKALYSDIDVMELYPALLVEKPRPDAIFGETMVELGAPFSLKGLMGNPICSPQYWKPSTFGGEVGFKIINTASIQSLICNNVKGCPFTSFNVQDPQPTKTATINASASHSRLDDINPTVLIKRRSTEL
Description: Inhibition of wild type mouse COX2 by discontinuous radioactive TLC assay

[4] = target: T4, Aldo-keto reductase family 1 member C3 (Homo sapiens, UniProt P42330); assay: Inhibition of human recombinant AKR1C3-mediated NADP+-dependent oxidation of S-(+)-1,2,3,4-tetrahydro-1-naphthol
T4 sequence (P42330 whole entry): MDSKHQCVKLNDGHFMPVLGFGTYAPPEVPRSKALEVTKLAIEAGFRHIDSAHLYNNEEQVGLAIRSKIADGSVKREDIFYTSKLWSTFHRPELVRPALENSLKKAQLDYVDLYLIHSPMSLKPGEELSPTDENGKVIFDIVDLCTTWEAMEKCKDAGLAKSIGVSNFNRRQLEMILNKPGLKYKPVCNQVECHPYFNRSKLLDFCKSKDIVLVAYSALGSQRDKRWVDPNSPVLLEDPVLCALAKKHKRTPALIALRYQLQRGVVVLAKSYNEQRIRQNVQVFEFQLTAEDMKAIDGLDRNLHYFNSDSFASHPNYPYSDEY

[5] = target: T5, Aldo-keto reductase family 1 member C1 (Homo sapiens, UniProt Q04828); assay: Inhibition of human recombinant AKR1C1-mediated NADP+-dependent oxidation of S-(+)-1,2,3,4-tetrahydro-1-naphthol
T5 sequence (Q04828 whole entry): T2 sequence (P52895 whole entry) with V38T, H47R, V54L, S87C, M151V, H170R, L172Q

Cc1c(CC(=O)O)c2cc(F)ccc2n1C(=O)c1ccc(Cl)cc1
pIC50 [1]: 6.31
pIC50 [2]: 5.21
pIC50 [3]: 7.05
pIC50 [4]: 6.60

CCc1c(CCC(=O)O)n(C(=O)c2ccc(Cl)cc2)c2ccc(OC)cc12
pIC50 [3]: 5.15

COc1ccc2c(c1)c(CC(=O)O)cn2C(=O)c1ccc(Cl)cc1
pIC50 [5]: < 4.00
pIC50 [1]: 4.82
pIC50 [3]: 5.49
